Data taken from patent US20170190671A1, “BIS(ARYL)CATECHOL DERIVATIVES AS HERBICIDES” (E I DU PONT DE NEMOURS AND COMPANY, priority 2014, published 2017).

Experiments:
Type in all cases: in vivo
[1] = system: barnyardgrass (Echinochloa crus-galli); assay: Test B flooded paddy; conditions: Echinochloa crus-galli, 336 h; 250 g ai/ha, Flood, 13 to 15 days, scale 0 (no effect) to 100 (complete control); read-out: Plant response rating, Barnyardgrass
Summary of the method: (§1)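 Ratings were visual and made relative to untreated controls after 13 to 15 greenhouse days.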

[2] = system: ducksalad (Heteranthera limosa); assay: Test B flooded paddy; conditions: Heteranthera limosa, 336 h; 250 g ai/ha, Flood, 13 to 15 days, scale 0 (no effect) to 100 (complete control); read-out: Plant response rating, Ducksalad
Summary of the method: as §1

rice (Oryza sativa) = assay: Test B flooded paddy; conditions: Oryza sativa, 336 h; 250 g ai/ha, Flood, 13 to 15 days, scale 0 (no effect) to 100 (complete control); read-out: Plant response rating, Rice
Summary of the method: as §1

[3] = system: sedge, umbrella (small-flower umbrella sedge, Cyperus difformis); assay: Test B flooded paddy; conditions: Cyperus difformis, 336 h; 250 g ai/ha, Flood, 13 to 15 days, scale 0 (no effect) to 100 (complete control); read-out: Plant response rating, Sedge, Umbrella
Summary of the method: as §1

[4] = system: Italian ryegrass (Lolium multiflorum); assay: Test A preemergence; conditions: Lolium multiflorum, pre-emergence, 240 h, 0 to 100 scale (0 no effect, 100 complete control), read-out: Ryegrass, Italian plant response rating
Summary of the method: (§2)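 Scoring: eye-based comparison with untreated controls, 0 for no effect through 100 for complete control, at about day 10. Treatments: directed soil spray preemergence; foliar spray postemergence on 2–10 cm plants at the one- to two-leaf stage. Medium: loam soil with sand.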

[5] = system: barnyardgrass (Echinochloa crus-galli); assay: Test A preemergence; conditions: Echinochloa crus-galli, pre-emergence, 240 h
Summary of the method: as §2

[6] = system: giant foxtail (Setaria faberii); assay: Test A preemergence; conditions: Setaria faberi, pre-emergence, 240 h, 0 to 100 scale (0 no effect, 100 complete control), read-out: Foxtail, Giant plant response rating
Summary of the method: as §2

kochia (Kochia scoparia) [7] = assay: Test A preemergence; conditions: Bassia scoparia, pre-emergence, 240 h, 0 to 100 scale (0 no effect, 100 complete control), read-out: Kochia plant response rating
Summary of the method: as §2

[8] = system: pigweed (Amaranthus retroflexus); assay: Test A preemergence; conditions: Amaranthus retroflexus, pre-emergence, 240 h, 0 to 100 scale (0 no effect, 100 complete control), read-out: Pigweed plant response rating
Summary of the method: as §2

[9] = system: ragweed (common ragweed, Ambrosia elatior); assay: Test A preemergence; conditions: Ambrosia artemisiifolia, pre-emergence, 240 h, 0 to 100 scale (0 no effect, 100 complete control), read-out: Ragweed plant response rating
Summary of the method: as §2

[10] = system: Italian ryegrass (Lolium multiflorum); assay: Test A postemergence; conditions: Lolium multiflorum, post-emergence, 240 h, 0 to 100 scale, read-out: Plant response rating, Ryegrass, Italian
Summary of the method: as §2

[11] = system: barnyardgrass (Echinochloa crus-galli); assay: Test A postemergence; conditions: Echinochloa crus-galli, post-emergence, 240 h, 0 to 100 scale, read-out: Plant response rating, Barnyardgrass
Summary of the method: as §2

[12] = system: blackgrass (Alopecurus myosuroides); assay: Test A postemergence; conditions: Alopecurus myosuroides, post-emergence, 240 h, 0 to 100 scale, read-out: Plant response rating, Blackgrass
Summary of the method: as §2

corn (Zea mays) = assay: Test A postemergence; conditions: Zea mays, post-emergence, 240 h, 0 to 100 scale
Summary of the method: as §2

[13] = system: galium (catchweed bedstraw, Galium aparine); assay: Test A postemergence; conditions: Galium, post-emergence, 240 h, 0 to 100 scale, read-out: Plant response rating, Galium
Summary of the method: as §2

[14] = system: giant foxtail (Setaria faberii); assay: Test A postemergence; conditions: Setaria faberi, post-emergence, 240 h, 0 to 100 scale, read-out: Plant response rating, Foxtail, Giant
Summary of the method: as §2

kochia (Kochia scoparia) [15] = assay: Test A postemergence; conditions: Bassia scoparia, post-emergence, 240 h, 0 to 100 scale, read-out: Plant response rating, Kochia
Summary of the method: as §2

[16] = system: pigweed (Amaranthus retroflexus); assay: Test A postemergence; conditions: Amaranthus retroflexus, post-emergence, 240 h, 0 to 100 scale, read-out: Plant response rating, Pigweed
Summary of the method: as §2

[17] = system: ragweed (common ragweed, Ambrosia elatior); assay: Test A postemergence; conditions: Ambrosia artemisiifolia, post-emergence, 240 h, 0 to 100 scale, read-out: Plant response rating, Ragweed
Summary of the method: as §2

[18] = system: wheat (Triticum aestivum); assay: Test A postemergence; conditions: Triticum aestivum, post-emergence, 240 h, 0 to 100 scale, read-out: Plant response rating, Wheat
Summary of the method: as §2

[19] = system: galium (catchweed bedstraw, Galium aparine); assay: Test C postemergence; conditions: Galium, post-emergence, 336 h, Postemergence, scale 0 to 100, read-out: Plant response rating, Galium
[20] = system: giant foxtail (Setaria faberii); assay: Test C postemergence; conditions: Setaria faberi, post-emergence, 336 h, Postemergence, scale 0 to 100, read-out: Plant response rating, Foxtail, Giant
[21] = system: morningglory (Ipomoea coccinea); assay: Test C postemergence; conditions: Ipomoea, post-emergence, 336 h, Postemergence, scale 0 to 100, read-out: Plant response rating, Morningglory

Fc1cnc(Oc2c(F)ccc(F)c2Oc2ncc(F)cn2)nc1 [Compound 29, 2,2′-[(3,6-difluoro-1,2-phenylene)bis(oxy)]bis[5-fluoropyrimidine]]
90%: pest or weed control at 250 g/ha [1] | pest or weed control at 250 g/ha [2] | pest or weed control at 125 g/ha ([9]; 125 g ai/ha) | pest or weed control at 125 g/ha ([12]; 125 g ai/ha) | Corn plant response rating (crop injury, 0 = no effect, 100 = complete kill) at 125 g/ha (corn (Zea mays); 125 g ai/ha) | pest or weed control at 31 g/ha ([16]; 31 g ai/ha) | pest or weed control at 125 g/ha ([16]; 125 g ai/ha) | pest or weed control at 62 g/ha ([19]; 62 g ai/ha) | pest or weed control at 62 g/ha ([21]; 62 g ai/ha)
85%: plant injury at 250 g/ha (rice (Oryza sativa)) | pest or weed control at 16 g/ha ([19]; 16 g ai/ha) | pest or weed control at 31 g/ha ([19]; 31 g ai/ha)
95%: pest or weed control at 125 g/ha ([21]; 125 g ai/ha)
20%: pest or weed control at 31 g/ha ([10]; 31 g ai/ha) | pest or weed control at 125 g/ha ([10]; 125 g ai/ha) | pest or weed control at 31 g/ha ([11]; 31 g ai/ha) | Corn plant response rating (crop injury, 0 = no effect, 100 = complete kill) at 31 g/ha (corn (Zea mays); 31 g ai/ha) | pest or weed control at 125 g/ha ([20]; 125 g ai/ha)
10%: pest or weed control at 31 g/ha ([5]; 31 g ai/ha, 0 to 100 scale (0 no effect, 100 complete control), read-out: Barnyardgrass plant response rating)
80%: pest or weed control at 31 g/ha ([6]; 31 g ai/ha) | pest or weed control at 31 g/ha (kochia (Kochia scoparia) [7]; 31 g ai/ha) | pest or weed control at 125 g/ha ([11]; 125 g ai/ha) | pest or weed control at 31 g/ha ([12]; 31 g ai/ha) | pest or weed control at 31 g/ha (kochia (Kochia scoparia) [15]; 31 g ai/ha) | plant injury at 125 g/ha ([18]; 125 g ai/ha)
30%: pest or weed control at 125 g/ha ([4]; 125 g ai/ha) | pest or weed control at 31 g/ha ([14]; 31 g ai/ha) | plant injury at 31 g/ha ([18]; 31 g ai/ha)
40%: pest or weed control at 31 g/ha ([17]; 31 g ai/ha)
5%: pest or weed control at 62 g/ha ([20]; 62 g ai/ha)
100%: pest or weed control at 125 g/ha ([5]; 125 g ai/ha, 0 to 100 scale, read-out: Plant response rating, Barnyardgrass) | pest or weed control at 125 g/ha ([6]; 125 g ai/ha) | pest or weed control at 125 g/ha (kochia (Kochia scoparia) [7]; 125 g ai/ha) | pest or weed control at 31 g/ha ([8]; 31 g ai/ha) | pest or weed control at 125 g/ha ([8]; 125 g ai/ha) | pest or weed control at 31 g/ha ([13]; 31 g ai/ha) | pest or weed control at 125 g/ha ([13]; 125 g ai/ha) | pest or weed control at 125 g/ha (kochia (Kochia scoparia) [15]; 125 g ai/ha)
75%: pest or weed control at 250 g/ha [3] | pest or weed control at 31 g/ha ([21]; 31 g ai/ha)
0%: pest or weed control at 31 g/ha ([4]; 31 g ai/ha) | pest or weed control at 31 g/ha ([9]; 31 g ai/ha) | pest or weed control at 16 g/ha ([20]; 16 g ai/ha) | pest or weed control at 31 g/ha ([20]; 31 g ai/ha)
60%: pest or weed control at 125 g/ha ([14]; 125 g ai/ha) | pest or weed control at 125 g/ha ([17]; 125 g ai/ha)
98%: pest or weed control at 125 g/ha ([19]; 125 g ai/ha)
